From PMC12525028, “Blood–Brain Barrier Penetration of Novel 4-Trifluoromethyl-Coumarin Hybrids with Antibacterial Properties as Potential Brain Therapeutics in the Context of Spatially Diverse Healthcare Systems” (International Journal of Molecular Sciences, 2025)
In brackets after ≈: the same amount, converted by molar mass. Entries after “also recorded” stand apart in the source; their conditions may differ. Read-outs that look alike come from different tables or passages of the source. Blank lines part the entries; values can stand above or below the compound they belong to.

What was measured:
[1] = Transfer of coumarins from blood to CSF in sheep (third ventricle CSF, spectrophotometric); conditions: for Mean (μg/mL) Value with Centrifugation (average coumarin concentration in CSF) / Value (μg/mL) Without Centrifugation (average coumarin concentration in CSF): iv infusion 50 mg/500 mL over 15 min; for Mean (μg/mL) Value with Centrifugation (average coumarin concentration in CSF): CSF centrifuged; for Value (μg/mL) Without Centrifugation (average coumarin concentration in CSF): CSF not centrifuged; for change in CSF concentration level after centrifugation: paired data before/after centrifugation; for transfer to the CSF (coumarin concentration level higher than 0) / crossing of the BBB/BCSFB (in words) / metabolism after crossing the BBB/BCSFB (in words): sheep; for transfer to the CSF (coumarin concentration level higher than 0): after centrifugation of CSF; for crossing of the BBB/BCSFB (in words): iv administration; for metabolism after crossing the BBB/BCSFB (in words): from regression and absorbance curves
[2] = MTT cytotoxicity assay; conditions: mouse; for viability at 24 h, 0.5 µg/mL: cell viability, BALB/c-3T3, 0.5 µg/mL, MTT
[3] = Solubility in water (observation); format: physicochemical
[4] = in vivo; for crossing of the BBB/BCSFB (in words): iv
[5] = MTT cytotoxicity assay; conditions: mouse, αT3-1 pituitary gonadotrope cells; for viability at 24 h, 0.5 µg/mL: cell viability, αT3-1, 0.5 µg/mL, MTT
[6] = Mass spectrometric determination of coumarin 2 in sheep CSF (ESI, positive mode); format: in vivo; conditions: sheep CSF after administration of compound 2, sodiated ion
Experimental: All reagents and solvents were purchased from Sigma-Aldrich (Saint Louis, MI, USA). All solvents were of analytical grade and were used without prior distillation. Merck silica gel 60 F254 plates were used for TLC (Thin-Layer Chromatography) analysis. The crude reaction mixtures were purified using column chromatography on Merck silica gel 60/230–400 mesh (Rahway, NJ, USA), with an appropriate mixture of hexanes and ethyl acetate as eluent. Nuclear magnetic resonance (NMR) spectra were performed on a Varian apparatus (Varian, Saint Louis, MI, USA) (400 MHz) and (500 MHz); the mass spectrometer was from Waters Company, Milford, MA, USA. Chemical shifts are expressed in ppm and the coupling constant (J) is expressed in Hz using TMS as an internal standard. […] Cerebrospinal fluid (CSF) samples were analyzed for the presence of the investigated coumarin derivative 2 using a SCIEX API 3000 triple quadrupole mass spectrometer (Science, Engineering, and Technology (SCIEX, Concord, ON, Canada)) equipped with an electrospray ionization (ESI) source operated in positive ion mode.
Sheep CSF samples were collected and stored at −80 °C until further analysis. […] The samples were analyzed using a SCIEX API 3000 triple quadrupole mass spectrometer equipped with an electrospray ionization (ESI) source operating in positive ion mode. […]

[7] = in vitro; conditions: mouse, cell viability, αT3-1, 0.5 µg/mL, MTT
[8] = in vitro; conditions: mouse, cell viability, BALB/c-3T3, 0.5 µg/mL, MTT
[9] = BALB/c-3T3 mouse embryonic fibroblast cells

Structure (SMILES): COc1ccc(CNC(=O)C(c2ccc(OC)cc2)N(C(=O)CCCC(=O)O)c2ccc3c(C)cc(=O)oc3c2)cc1 (centres unmarked) [Compound 1]
Mean (μg/mL) Value with Centrifugation (average coumarin concentration in CSF) ([1]; sheep CSF): 2 (+/−5) μg/mL
Value (μg/mL) Without Centrifugation (average coumarin concentration in CSF) ([1]; sheep CSF): 10 (+/−5) μg/mL

Structure (SMILES): CCOC(=O)CNC(=O)C(Nc1ccc2c(C(F)(F)F)cc(=O)oc2c1)c1ccccc1 (centres unmarked) [Compound 2]
IC50 at 24 h [2]: 6.58 µg/mL (≈ 14.7 µM)
solubility in water (in words) [3]: does not dissolve in water
crossing of the BBB/BCSFB (in words) [4]: penetrated the blood–brain barrier to the greatest extent
protein binding (in words) ([4]; sheep): binds well to proteins
Value (μg/mL) Without Centrifugation (average coumarin concentration in CSF) ([1]; sheep CSF): 350 (+/−5) μg/mL
average coumarin concentration in CSF after centrifugation ([1]; sheep CSF, iv infusion, after centrifugation): 118.32 µg/mL
average coumarin concentration in CSF before centrifugation ([1]; sheep CSF, iv infusion, before centrifugation): 355.85 µg/mL
change in CSF concentration level after centrifugation ([1]; sheep CSF): significant decrease
transfer to the CSF (coumarin concentration level higher than 0) [1]: statistically confirmed
IC50 at 24 h [5]: 6.58 µg/mL (≈ 14.7 µM)
detection in CSF by ESI-MS [6]: presence of the compound as its sodiated ion

Structure (SMILES): CCOC(=O)CNC(=O)C(Nc1ccc2c(C(F)(F)F)cc(=O)oc2c1)c1ccc(OC)cc1 (centres unmarked) [Compound 4]
viability at 24 h, 0.5 µg/mL [7]: > 96%
viability at 24 h, 0.5 µg/mL [8]: > 96%

Structure (SMILES): Cc1cc(=O)oc2cc(/N=C/c3ccccc3)ccc12 [Compound 6]
viability at 24 h, 0.5 µg/mL [2, 9]: > 96%
Value (μg/mL) Without Centrifugation (average coumarin concentration in CSF) ([1]; sheep CSF): 8 (+/−5) μg/mL
viability at 24 h, 0.5 µg/mL [5]: > 96%

Structure (SMILES): CCOC(=O)CNC(=O)C(Nc1ccc2c(C(F)(F)F)cc(=O)oc2c1)c1ccc(Br)cc1 (centres unmarked) [Compound 7]
metabolism after crossing the BBB/BCSFB (in words) [4]: partially metabolized
transfer to the CSF (coumarin concentration level higher than 0) [4]: statistically confirmed
crossing of the BBB/BCSFB (in words) [4]: crossed the BBB/BCSFB

Now from value to compound, other results behind:

Value (μg/mL) Without Centrifugation (average coumarin concentration in CSF) ([1]; sheep CSF): 2.5 (+/−5) μg/mL
crossing of the BBB/BCSFB (in words) [1]: crossed the BBB/BCSFB
metabolism after crossing the BBB/BCSFB (in words) [1]: partially metabolized
Structure (SMILES): COc1ccc(CNC(=O)C(c2ccccc2)N(C(=O)CCCC(=O)O)c2ccc3c(C)cc(=O)oc3c2)cc1 (centres unmarked) [Compound 3]
viability at 24 h, 0.5 µg/mL [2, 9]: > 96%
viability at 24 h, 0.5 µg/mL [5]: > 96%

Value (μg/mL) Without Centrifugation (average coumarin concentration in CSF) ([1]; sheep CSF): 5 (+/−5) μg/mL
crossing of the BBB/BCSFB (in words) [1]: crossed the BBB/BCSFB
metabolism after crossing the BBB/BCSFB (in words) [1]: partially metabolized
Structure (SMILES): CCOC(=O)CNC(=O)C(c1ccc(OC)cc1)N(C(=O)Cc1ccccc1)c1ccc2c(C)cc(=O)oc2c1 (centres unmarked) [Compound 5]
viability at 24 h, 0.5 µg/mL [2, 9]: > 96%
viability at 24 h, 0.5 µg/mL [5]: > 96%

Mean (μg/mL) Value with Centrifugation (average coumarin concentration in CSF) ([1]; sheep CSF): 20 (+/−5) μg/mL
Value (μg/mL) Without Centrifugation (average coumarin concentration in CSF) ([1]; sheep CSF): 30 (+/−5) μg/mL
change in CSF concentration level after centrifugation ([1]; sheep CSF): significant decrease
transfer to the CSF (coumarin concentration level higher than 0) [1]: statistically confirmed
Structure (SMILES): COc1ccc(CNC(=O)C(c2ccc(Br)cc2)N(C(=O)Cc2ccccc2)c2ccc3c(C)cc(=O)oc3c2)cc1 (centres unmarked) [Compound 8]
IC50 at 24 h [2, 9]: 1.71 µg/mL (≈ 2.73 µM)
crossing of the BBB/BCSFB (in words) [1]: penetrated the blood–brain barrier to the greatest extent; also recorded: capable of crossing the blood–brain barrier
IC50 at 24 h [5]: 1.71 µg/mL (≈ 2.73 µM)
